In US20190136321A1, “USE OF TRANSLATIONAL PROFILING TO IDENTIFY TARGET MOLECULES FOR THERAPEUTIC TREATMENT” (The Regents of The University of California, priority 2013, published 2019):

Legend:
Assay type in all cases: cell-based, human
SW620 cells = assay: Western blot of phosphorylation of protein translation components in SW620 cells; details: PP242 10 μM
Experimental: SW620 cells (ATCC, passage 12) were seeded at about 75% confluence 24 hrs prior to drug treatment. […] About 6×10^6 cells/10 cm plate and about 1×10^6 cells/well of a 6-well plate were harvested for ribosome profiling and Western blot analysis, respectively, following drug treatment.
Cells were washed with PBS and lysed in 1× cell lysis buffer (Cell Signaling) for 15 min at 4° C. Lysates were sonicated briefly, clarified by centrifugation for 15 min at 14, 000 rpm, and supernatants were then collected. Protein concentration in the soluble fraction was determined by BCA protein assay (Thermo Scientific). A 4-20% Bis-Tris gradient gel (Invitrogen) was used to resolve 20 μg of protein and transferred to nitrocellulose membrane. The resulting membranes were blocked for 1 hr at room temperature with Odyssey blocking solution (LI-COR) and then incubated with primary antibodies at 4° C. overnight. The following day, the blots were washed 3 times, 10 min each in TBST, and incubated with IR-conjugated goat anti-rabbit IgG secondary antibody (IRDye 800 CW at 1:20,000; LI-COR) for 1 hour at room temperature. The blots were then washed, scanned, and specific proteins were detected using the LI-COR Odyssey infrared imager. The following antibodies from Cell Signaling were used at 1:1000 dilution: anti-phospho-eIF4E(Ser209)(#9741), anti-phospho-rpS6(Ser235/236)(#4858), anti-phospho-ERK1/2(Thr202/Tyr204)(#4370), anti-phospho-p70S6K(Thr421/Ser424)(#9204), anti-phospho-p90RSK(Thr359/Ser363)(#9344), anti-phospho-4EBP(Ser65), anti-phospho-pAKT(Ser473), anti-phospho-eIF4E(Ser209), and anti-β-actin (#4970). Actin was used as a loading amount control.

PC3 cells = assay: Ribosome profiling and RNA-seq of PC3 cells (translational efficiency, mRNA abundance);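 note: mRNA is RNA-seq average read density per codon over the coding sequence, translational efficiency is ribosome footprint over RNA-seq density, scaled so the median gene equals 1.0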
Experimental: Given the critical role for mTOR in prostate cancer, PC3 human prostate cancer cells, in which mTOR is constitutively hyperactivated, were used to delineate translationally controlled gene expression networks upon complete or partial mTOR inhibition. Ribosome profiling was optimized to assess quantitatively ribosome occupancy genome-wide in cancer cells.
Cells were subsequently treated with cycloheximide (100 μg ml^−1) and detergent lysis was performed in the dish. The lysate was treated with DNase and clarified, and a sample was taken for RNA-seq analysis. Lysates were subjected to ribosome footprinting by nuclease treatment. Ribosome-protected fragments were purified, and deep sequencing libraries were generated from these fragments, as well as from poly(A) mRNA purified from non-nuclease-treated lysates.
Ribosome footprint and RNA-seq sequencing reads were aligned against a library of transcripts from the UCSC Known Genes database GRCh37/hg19. The first 25 nucleotides of each read were aligned using Bowtie and this initial alignment was then extended to encompass the full fragment-derived portion of the sequencing read while excluding the linker sequence. Read density profiles were then constructed for the canonical transcript of each gene, using only reads with 0 or 1 total mismatches between the read sequence and the reference sequence, comprised of the transcript fragment followed by the linker sequence. Footprint reads were assigned to an A site nucleotide at position +15 to +17 of the alignment, based on the total fragment length; mRNA reads were assigned to the first nucleotide of the alignment. The average read density per codon was then computed for the coding sequence of each transcript, excluding the first 15 and last 5 codons, which can display atypical ribosome accumulation.
Average read density was used as a measure of mRNA abundance (RNA-seq reads) and of protein synthesis (ribosome profiling reads). For most analyses, genes were filtered to require at least 256 reads in the relevant RNA-seq samples. Translational efficiency was computed as the ratio of ribosome footprint read density to RNA-seq read density, scaled to normalize the translational efficiency of the median gene to 1.0 after excluding regulated genes (log2 fold-change ±1.5 after normalizing for the all-gene median). Changes in protein synthesis, mRNA abundance and translational efficiency were similarly computed as the ratio of read densities between different samples, normalized to give the median gene a ratio of 1.0. This normalization corrects for differences in the absolute number of sequencing reads obtained for different libraries.

4EBP1, p70S6K1/2 and AKT = assay: Western blot of downstream mTOR effectors in PC3 cells; details: 2.5 μM PP242, 3 hrs
Experimental: Cells were washed with PBS and lysed in 1× cell lysis buffer (Cell Signaling) for 15 min at 4° C. Lysates were sonicated briefly, clarified by centrifugation for 15 min at 14, 000 rpm, and supernatants were then collected. Protein concentration in the soluble fraction was determined by BCA protein assay (Thermo Scientific). A 4-20% Bis-Tris gradient gel (Invitrogen) was used to resolve 20 μg of protein and transferred to nitrocellulose membrane. The resulting membranes were blocked for 1 hr at room temperature with Odyssey blocking solution (LI-COR) and then incubated with primary antibodies at 4° C. overnight. The following day, the blots were washed 3 times, 10 min each in TBST, and incubated with IR-conjugated goat anti-rabbit IgG secondary antibody (IRDye 800 CW at 1:20,000; LI-COR) for 1 hour at room temperature. The blots were then washed, scanned, and specific proteins were detected using the LI-COR Odyssey infrared imager. […] Actin was used as a loading amount control.

## CC(C)n1nc(-c2cc3cc(O)ccc3[nH]2)c2c(N)ncnc21 [PP242]
SW620 cells
  phosphorylation of 4EBP: some phosphorylation of 4EBP was observed
PC3 cells; PP242 2.5 μM, 3-hour treatment
  TrlEff, ACD: −1.02
  TrlEff, C17orf28: −0.20
  TrlEff, CCNA1: 0.66
  TrlEff, DDX51: −0.51
  TrlEff, DGCR2: 0.02
  TrlEff, EEF1A1: −3.53
  TrlEff, GTPBP3: −0.83
  TrlEff, MAPK6: −0.29
  TrlEff, MAPKAPK2: 0.92
  TrlEff, NFATC21P: 0.35
  TrlEff, NR2F1: −0.09
  TrlEff, PRKD3: 0.68
  TrlEff, RBPJ: −0.03
  TrlEff, RPL28: −3.48
  TrlEff, RPL39: −2.53
  TrlEff, RPS20: −2.78
  TrlEff, RPS27: −3.35
  TrlEff, SDCCAG10: 0.23
  TrlEff, UBTD2: 0.27
  TrlEff, UCHL5: 0.40
  TrlEff, VHL: 0.52
  mRNA, ACD: 0.20
  mRNA, ARID5B: 1.93 log^2 fold change
  mRNA, BCL6: 1.59 log^2 fold change
  mRNA, BRIX1: −1.51 log^2 fold change
  mRNA, C17orf28: 0.21
  mRNA, CCNA1: −0.33
  mRNA, CTGF: 1.80 log^2 fold change
  mRNA, CYR61: 1.47 log^2 fold change
  mRNA, DDX51: 0.17
  mRNA, DGCR2: 0.05
  mRNA, EEF1A1: 0.29
  mRNA, FGFBP1: −1.75 log^2 fold change
  mRNA, FOXA1: 1.45 log^2 fold change
  mRNA, GDF15: 3.02 log^2 fold change
  mRNA, GTPBP3: 0.15
  mRNA, HBP1: 1.88 log^2 fold change
  mRNA, KLF6: 1.75 log^2 fold change
  mRNA, MAPK6: 0.10
  mRNA, MAPKAPK2: −0.22
  mRNA, MT2A: 1.47 log^2 fold change
  mRNA, NFATC21P: 0.08
  mRNA, NR2F1: 0.87
  mRNA, PLAU: 2.04 log^2 fold change
  mRNA, PRKD3: −0.46
  mRNA, RBPJ: 0.17
  mRNA, RND3: 1.78 log^2 fold change
  mRNA, RPL28: 0.55
  mRNA, RPL39: −0.42
  mRNA, RPS20: −0.10
  mRNA, RPS27: 0.06
  mRNA, SDCCAG10: −0.37
  mRNA, SOX4: 1.51 log^2 fold change
  mRNA, UBTD2: 0.25
  mRNA, UCHL5: −0.51
  mRNA, VHL: 0.43
PC3 cells; gene ACTG1
  TrlEff: −1.40
  mRNA: 0.28
PC3 cells; gene AGRN
  mRNA: 0.50
PC3 cells; gene ALKBH7
  mRNA: 0.51
PC3 cells; gene AP2A1
  mRNA: 0.42
PC3 cells; gene ARD1A
  mRNA: 0.03
PC3 cells; gene ATP5G2
  mRNA: 0.17
PC3 cells; gene C21orf66
  mRNA: −0.31
PC3 cells; gene CCNI
  mRNA: 0.24
PC3 cells; gene CD44
  mRNA: 0.43
PC3 cells; gene CIRBP
  mRNA: 0.54
PC3 cells; gene CLPTM1
  mRNA: 0.41
PC3 cells; gene COL6A2
  mRNA: 0.57
PC3 cells; gene CRTAP
  TrlEff: −2.50
  mRNA: 0.33
PC3 cells; gene ECSIT
  mRNA: 0.26
PC3 cells; gene EEF1A2
  mRNA: 0.40
PC3 cells; gene EEF1B2
  TrlEff: −1.70
PC3 cells; gene EEF1D
  mRNA: 0.35
PC3 cells; gene EEF1G
  mRNA: 0.15
PC3 cells; gene EEF2
  TrlEff: −3.60
PC3 cells; gene EIF3H
  mRNA: 0.09
PC3 cells; gene EIF3L
  mRNA: 0.21
PC3 cells; gene EIF4B
  mRNA: 0.61
PC3 cells; gene EVPL
  TrlEff: −0.79
  mRNA: 0.38
PC3 cells; gene FAM83H
  mRNA: 0.33
PC3 cells; gene FAM128B
  mRNA: 0.43
PC3 cells; gene FASN
  mRNA: 0.30
PC3 cells; gene GAPDH
  TrlEff: −1.90
PC3 cells; gene GLTSCR2
  mRNA: 0.70
PC3 cells; gene GNB2L1
  mRNA: 0.27
PC3 cells; gene HNRNPA1
  mRNA: 0.27
PC3 cells; gene HSPA8
  mRNA: −0.40
PC3 cells; gene IMPDH2
  mRNA: 0.21
PC3 cells; gene LAMA5
  TrlEff: −0.94
  mRNA: 0.40
PC3 cells; gene LMF2
  mRNA: 0.62
PC3 cells; gene MTA1
  mRNA: 0.21
PC3 cells; gene NCLN
  TrlEff: −0.76
  mRNA: 0.29
PC3 cells; gene PABPC1
  mRNA: 0.16
PC3 cells; gene PABPC4
  mRNA: 0.40
PC3 cells; gene PACS1
  mRNA: 0.45
PC3 cells; gene PFDN5
  mRNA: 0.04
PC3 cells; gene PGLS
  mRNA: 0.21
PC3 cells; gene PGM1
  mRNA: 0.23
PC3 cells; gene PNKP
  TrlEff: −0.79
  mRNA: 0.33
PC3 cells; gene PTGES2
  TrlEff: −0.65
  mRNA: 0.17
PC3 cells; gene RABGGTB
  mRNA: 0.20
PC3 cells; gene RPL3
  mRNA: 0.22
PC3 cells; gene RPL4
  TrlEff: −1.50
  mRNA: 0.10
PC3 cells; gene RPL7
  mRNA: 0.01
PC3 cells; gene RPL7A
  TrlEff: −2.30
  mRNA: 0.15
PC3 cells; gene RPL9
  mRNA: −0.08
PC3 cells; gene RPL10
  mRNA: 0.25
PC3 cells; gene RPL10A
  mRNA: 0.14
PC3 cells; gene RPL11
  mRNA: 0.14
PC3 cells; gene RPL12
  mRNA: 0.12
PC3 cells; gene RPL13
  mRNA: 0.26
PC3 cells; gene RPL13A
  TrlEff: −3.10
  mRNA: 0.30
PC3 cells; gene RPL15
  TrlEff: −1.20
  mRNA: 0.19
PC3 cells; gene RPL17
  TrlEff: −1.80
PC3 cells; gene RPL18A
  mRNA: 0.23
PC3 cells; gene RPL19
  mRNA: 0.11
PC3 cells; gene RPL21
  mRNA: −0.04
PC3 cells; gene RPL22
  mRNA: 0.00
PC3 cells; gene RPL22L1
  TrlEff: −1.90
PC3 cells; gene RPL24
  mRNA: 0.00
PC3 cells; gene RPL26
  TrlEff: −2.00
  mRNA: 0.02
PC3 cells; gene RPL27
  mRNA: −0.13
PC3 cells; gene RPL27A
  mRNA: 0.07
PC3 cells; gene RPL28
  mRNA: 0.22
PC3 cells; gene RPL31
  TrlEff: −2.10
  mRNA: 0.05
PC3 cells; gene RPL32
  mRNA: 0.11
PC3 cells; gene RPL34
  mRNA: 0.04
PC3 cells; gene RPL36A
  mRNA: −0.01
PC3 cells; gene RPL37A
  mRNA: 0.01
PC3 cells; gene RPL39
  mRNA: −0.15
PC3 cells; gene RPL41
  mRNA: −0.01
PC3 cells; gene RPLP0
  mRNA: 0.12
PC3 cells; gene RPLP1
  mRNA: 0.12
PC3 cells; gene RPLP2
  TrlEff: −2.10
  mRNA: 0.14
PC3 cells; gene RPS2
  mRNA: 0.20
PC3 cells; gene RPS3
  mRNA: 0.24
PC3 cells; gene RPS3A
  mRNA: −0.06
PC3 cells; gene RPS4X
  mRNA: 0.12
PC3 cells; gene RPS5
  mRNA: 0.23
PC3 cells; gene RPS6
  mRNA: −0.02
PC3 cells; gene RPS7
  TrlEff: -1151
  mRNA: −0.04
PC3 cells; gene RPS9
  mRNA: 0.34
PC3 cells; gene RPS12
  TrlEff: −3.00
  mRNA: 0.04
PC3 cells; gene RPS13
  mRNA: −0.08
PC3 cells; gene RPS14
  TrlEff: −1.50
  mRNA: 0.16
PC3 cells; gene RPS15
  mRNA: 0.21
PC3 cells; gene RPS15A
  mRNA: 0.07
PC3 cells; gene RPS19
  mRNA: 0.23
PC3 cells; gene RPS20
  mRNA: −0.01
PC3 cells; gene RPS21
  mRNA: 0.09
PC3 cells; gene RPS25
  mRNA: −0.04
PC3 cells; gene RPS27
  mRNA: 0.07
PC3 cells; gene RPS27A
  mRNA: −0.04
PC3 cells; gene RPS28
  mRNA: 0.28
PC3 cells; gene RPS29
  mRNA: 0.11
PC3 cells; gene SLC19A1
  mRNA: 0.10
PC3 cells; gene SLC25A5
  TrlEff: −1.80
PC3 cells; gene TKT
  mRNA: 0.33
PC3 cells; gene TSC2
  mRNA: 0.21
PC3 cells; gene UBA52
  mRNA: 0.18
PC3 cells; gene VIM
  mRNA: 0.67
PC3 cells; gene YB1
  TrlEff: −2.30
  mRNA: 0.24
4EBP1, p70S6K1/2 and AKT
  phosphorylation of S6K, S6 and 4EBP1: substantially inhibited
